Oligonucleotides are written 5' to 3', each unit as a sugar letter and its base; * is a phosphorothioate linkage, no mark a phosphodiester; rarer units and linkages stand in square brackets, end groups in braces. Plain capitals give the bases only. e = 2'-O-(2-methoxyethyl) (MOE); [5mC] = 5-methylcytosine; d = 2'-deoxy (DNA)
Columns and labels:
Format in all cases: cell-based
Mouse STAT3 mRNA = assay: Inhibition of mouse STAT3 mRNA expression in BCL1 cells (electroporation; RNase protection/Northern blot); parameters: % mRNA INHIBITION: dose or concentration left out as unconfirmed; conditions: BCL1 cells electroporated with oligonucleotide, RNA collected 24 hours later; for % mRNA EXPRESSION: control 100%
Protocol: The B lymphoma cell line, BCL1 was obtained from ATCC (Rockville, Md.). BCL1 cells were cultured in RPMI 1640 medium.
BCL1 cells (5×10^6 cells in PBS) were transfected with oligonucleotides by electroporation, at 200V, […]. using a BTX Electro Cell Manipulator 600 (Genetronics, San Diego, Calif.). For an initial screen, BCL1 were electroporated with […] oligonucleotide and RNA collected 24 hours later. Controls without oligonucleotide were subjected to the same electroporation conditions.
Total cellular RNA was isolated using the RNEASY7 kit (Qiagen, Santa Clarita, Calif.). RNAse protection experiments were conducted using RIBOQUANT™ kits and template sets according to the manufacturer's instructions (Pharmingen, San Diego, Calif.). Northern blotting was performed as described in Chiang, M-Y. et al. (J. Biol. Chem., 1991, 266, 18162-18171), using a rat cDNA probe prepared by Xho I/Sal I restriction digest of psvsport-1 plasmid (ATCC, Rockville, Md.). mRNA levels were quantitated using a PhosphorImager (Molecular Dynamics, Sunnyvale, Calif.).

Human STAT3 mRNA [1] = assay: Inhibition of human STAT3 mRNA expression in U266 cells, Northern blot; conditions: U266 cells, 2.5 μM oligonucleotide, electroporation, 24 hours; percent of control
Protocol: U266 human myeloma cell lines (originally obtained from American Type Culture Collection) were maintained in RPMI 1640 medium supplemented with 10% fetal calf serum. Cells (15×10^6 cells in PBS) were transfected with oligonucleotides at 200V with a single 6-millisecond pulse using a BTX Electro Square Porator T820 (Genetronics, San Diego Calif.). The cells were incubated for 24 hours before RNA extraction.
Total cellular RNA was isolated using the Rneasy kit (Qiagen, Santa Clarita, Calif.). Northern blotting was perfomed on 15 μg of RNA using a cDNA probe prepared from MB-MDA 468 RNA by standard RT-PCR followed by a nested primer reaction. Signals were quantitated using a Molecular Dynamics Phosphorimager.
In order to examine the importance of STAT3 expression in multiple myeloma cells, a series of 20mer STAT3 antisense oligonucleotides were designed and synthesized, using phosphorothioate chemistry and incorporating 2′-O-methoxyethyl modifications to improve hybridization affinity and nuclease resistance.

Human STAT3 mRNA [2] = assay: Inhibition of human STAT3 mRNA levels in A549 cells, 75 nM, real-time PCR (Table 13); conditions: 75 nM oligonucleotide with LIPOFECTIN, real-time PCR PPS 199, percent inhibition relative to untreated control cells, average of 2 experiments
How it was run: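 A549 cells at 65–75% confluency were transfected in duplicate with 75 nM oligonucleotide plus […] Lipofectin for 4–7 h at 37° C and harvested 16–24 h later. STAT3 mRNA was quantified by real-time RT-PCR with primer-probe set PPS 199 and normalized to RiboGreen total RNA. Inhibition is relative to untreated controls.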

Human STAT3 mRNA [3] = assay: Human STAT3 mRNA dose response in T-24 cells, real-time PCR with PPS 199 (Table 18); conditions: 16 hours, − decrease, + increase relative to untreated control
Text: The transitional cell bladder carcinoma cell line T-24 was obtained from the American Type Culture Collection (ATCC) (Manassas, Va.). T-24 cells were routinely cultured in complete McCoy's 5A basal media (Gibco/Life Technologies, Gaithersburg, Md.) supplemented with 10% fetal calf serum (Gibco/Life Technologies, Gaithersburg, Md.), penicillin 100 units per mL, and streptomycin 100 micrograms per mL (Gibco/Life Technologies, Gaithersburg, Md.). Cells were routinely passaged by trypsinization and dilution when they reached 90% confluence. Cells were seeded into 96-well plates (Falcon-Primaria #3872) at a density of 7000 cells/well for use in RT-PCR analysis.
Control oligonucleotides used were ISIS 129695 ([…], SEQ ID NO: 391), ISIS 129694 ([…] SEQ ID NO: 392), ISIS 129690 ([…] SEQ ID NO: 393), ISIS 129686 ([…] SEQ ID NO: 394), ISIS 116847 ([…], SEQ ID NO: 395) and ISIS 113529 ([…] SEQ ID NO: 396). These are universal scrambled control oligonucleotides.
(§1) T-24 cells were treated with 18.75, 37.5, 75, or 150 nM of oligonucleotide mixed with 3 ug/mL LIPOFECTIN per 100 nM oligonucleotide as described by other examples herein. Untreated cells served as controls. Following 16 hours of treatment, RNA was prepared from cells for subsequent real-time PCR analysis.
Human STAT3 mRNA expression levels were quantitated by real-time PCR using primer probe set PPS 199 and gene target quantities were normalized using Ribogreen as described in other examples herein. A “−” or “+” designation indicates a decrease or increase of STAT 3 mRNA expression, respectively, relative to untreated control cells.

Human STAT3 mRNA [4] = assay: Human STAT3 mRNA dose response in T-24 cells, real-time PCR with PPS 2033 (Table 19); conditions: 16 hours, − decrease, + increase relative to untreated control
Protocol: The dose-response was repeated in T-24 cells and gene target quantities were measured using a different primer-probe set, called PPS 2033 herein. PPS 2033 comprises probes and primers to human STAT3 were designed to hybridize to a human STAT3 sequence, using published sequence information (incorporated herein as SEQ ID NO: XXX). For PPS 2033 the PCR primers were: forward primer: GAGGCCCGCCCAACA (SEQ ID NO: 397) reverse primer: […] (SEQ ID NO: 398) and the PCR probe was: FAM-CTGCCTAGATCGGC-TAMRA (SEQ ID NO: 399) where FAM is the fluorescent reporter dye and TAMRA is the quencher dye. Gene target quantities obtained by real time RT-PCR are normalized by quantifying total RNA using RiboGreen™ (Molecular Probes, Inc. Eugene, Oreg.). Control oligonucleotides used were ISIS 129695 (SEQ ID NO: 391), ISIS 129694 (SEQ ID NO: 392), ISIS 129690 (SEQ ID NO: 393), ISIS 129686 (SEQ ID NO: 394), ISIS 116847 (SEQ ID NO: 395) and ISIS 113529 (SEQ ID NO: 396).
as §1
Human STAT3 mRNA expression levels were quantitated by real-time PCR using primer probe set PPS 2033 and gene target quantities were normalized using Ribogreen as described in other examples herein. A “−” or “+” designation indicates a decrease or increase of STAT 3 mRNA expression, respectively, relative to untreated control cells.

| Substance | % mRNA INHIBITION (Mouse STAT3 mRNA) [%] | % mRNA EXPRESSION (Mouse STAT3 mRNA) [%] | also measured |
| --- | --- | --- | --- |
| 17153 (antisense eA*eT*e[5mC]*eA*e[5mC]*dC*dC*dA*dC*dA*dC*dT*dC*dA*dC*eT*e[5mC]*eA*eT*eT) [compound 17153] | 56 | 44 | – |
| 17156 (antisense e[5mC]*eA*e[5mC]*e[5mC]*eA*dG*dG*dA*dG*dG*dC*dA*dC*dT*dT*eG*eT*e[5mC]*eT*eA) [compound 17156] | 60 | 40 | – |
| 113189 (antisense eT*eT*eG*eT*eG*dT*dT*dT*dG*dT*dG*d[5mC]*d[5mC]*d[5mC]*dA*eG*eA*eA*eT*eG) [compound 113189] | – | – | % mRNA EXPRESSION (Human STAT3 mRNA [1]): 163.9% |
| 17142 (antisense eA*eT*e[5mC]*eT*eG*dA*dC*dA*dC*dC*dC*dT*dG*dA*dG*eT*eA*eG*eT*eT) [compound 17142] | 30 | 70 | – |
| 113207 (antisense eA*eT*e[5mC]*eA*e[5mC]*d[5mC]*d[5mC]*dA*d[5mC]*dA*dT*dT*d[5mC]*dA*d[5mC]*eT*e[5mC]*eA*eT*eT) [compound 113207] | – | – | % mRNA EXPRESSION (Human STAT3 mRNA [1]): 123.6% |
| 17150 (antisense eT*eA*eA*eA*eA*dA*dA*dA*dA*dA*dA*dA*dT*dC*dT*eG*eG*eA*eA*e[5mC]) [compound 17150] | 5 | 95 | – |
| 17146 (antisense eA*eT*e[5mC]*eA*eA*dT*dG*dA*dA*dT*dC*dT*dA*dA*dA*eG*eT*eG*e[5mC]*eG) [compound 17146] | 9 | 91 | – |
| 17157 (antisense eA*eA*e[5mC]*e[5mC]*eT*dC*dC*dT*dG*dG*dG*dC*dT*dT*dA*eG*eT*e[5mC]*e[5mC]*eT) [compound 17157] | 47 | 53 | – |
| 17143 (antisense eG*e[5mC]*e[5mC]*eA*eG*dA*dC*dC*dC*dA*dG*dA*dA*dG*dG*eA*eG*eA*eA*eG) [compound 17143] | 58 | 42 | – |
| 17151 (antisense eA*eA*eG*eA*eT*dA*dG*dC*dA*dG*dA*dA*dG*dT*dA*eG*eG*eA*eA*eA) [compound 17151] | 8 | 92 | – |
| 17141 (antisense eG*e[5mC]*eT*e[5mC]*eT*dT*dC*dA*dT*dC*dA*dG*dT*dC*dA*eG*eT*eG*eT*e[5mC]) [compound 17141] | 38 | 62 | – |
| 17137 (antisense eT*eT*e[5mC]*eA*eG*dG*dT*dA*dG*dC*dG*dT*dG*dT*dG*eT*e[5mC]*e[5mC]*eA*eG) [compound 17137] | 25 | 75 | – |
| 17145 (antisense eA*eA*e[5mC]*eT*eT*dG*dG*dT*dC*dT*dT*dC*dA*dG*dG*eT*eA*e[5mC]*eG*eG) [compound 17145] | 11 | 89 | – |
| 17140 (antisense eG*e[5mC]*eT*e[5mC]*e[5mC]*dA*dA*dC*dA*dT*dC*dT*dG*dC*dT*eG*e[5mC]*eT*eT*e[5mC]) [compound 17140] | 60 | 40 | – |
| 17136 (antisense eG*eT*eT*e[5mC]*e[5mC]*dA*dC*dT*dG*dA*dG*dC*dC*dA*dT*e[5mC]*e[5mC]*eT*eG*e[5mC]) [compound 17136] | 25 | 75 | – |
| 17149 (antisense eG*eG*eT*eT*eT*dC*dA*dG*dC*dT*dC*dC*dT*dC*dA*e[5mC]*eA*eT*eG*eG) [compound 17149] | 30 | 70 | – |
| 17155 (antisense eT*eG*eA*eA*eA*dA*dA*dG*dG*dA*dG*dG*dG*dC*dA*eG*eG*e[5mC]*eG*eG) [compound 17155] | 22 | 78 | – |
| 17147 (antisense eT*e[5mC]*eA*eG*e[5mC]*dA*dC*dC*dT*dT*dC*dA*dC*dC*dG*eT*eT*eA*eT*eT) [compound 17147] | 30 | 70 | – |
| 17138 (antisense eA*eT*eG*eT*eG*dA*dC*dT*dC*dT*dT*dT*dG*dC*dT*eG*eG*e[5mC]*eT*eG) [compound 17138] | 63 | 37 | – |
| 17139 (antisense e[5mC]*e[5mC]*eA*eA*eG*dA*dG*dA*dT*dT*dA*dT*dG*dA*dA*eA*e[5mC]*eA*e[5mC]*e[5mC]) [compound 17139] | 59 | 41 | – |
| 17144 (antisense e[5mC]*eG*e[5mC]*eT*e[5mC]*dC*dT*dT*dG*dC*dT*dG*dA*dT*dG*eA*eA*eA*e[5mC]*e[5mC]) [compound 17144] | 45 | 55 | – |
| 17154 (antisense e[5mC]*e[5mC]*eT*eT*eT*dG*dC*dC*dT*dC*dC*dC*dT*dT*dC*eT*eG*e[5mC]*eT*e[5mC]) [compound 17154] | 20 | 80 | – |
| 337293 (antisense e[5mC]*eA*eG*e[5mC]*e[5mC]*dA*dG*d[5mC]*dT*d[5mC]*d[5mC]*dT*d[5mC]*dG*dT*e[5mC]*e[5mC]*eG*eT*eG) [compound 337293] | – | – | % Inhib (inhibition of human STAT 3 mRNA levels) (Human STAT3 mRNA [2]): 92%; Percent change of STAT3 expression using PPS 199 (Human STAT3 mRNA [3]; 18.75 nM oligonucleotide): −26%; Percent change of STAT3 expression using PPS 199 (Human STAT3 mRNA [3]; 37.5 nM oligonucleotide): −49%; Percent change of STAT3 expression using PPS 199 (Human STAT3 mRNA [3]; 75 nM oligonucleotide): −66%; Percent change of STAT3 expression using PPS 199 (Human STAT3 mRNA [3]; 150 nM oligonucleotide): −79%; Percent change of STAT3 expression using PPS 2033 (Human STAT3 mRNA [4]; 18.75 nM oligonucleotide): −26%; Percent change of STAT3 expression using PPS 2033 (Human STAT3 mRNA [4]; 37.5 nM oligonucleotide): −49%; Percent change of STAT3 expression using PPS 2033 (Human STAT3 mRNA [4]; 75 nM oligonucleotide): −67%; Percent change of STAT3 expression using PPS 2033 (Human STAT3 mRNA [4]; 150 nM oligonucleotide): −79% |

Source: patent US20050074879A1, “Antisense oligonucleotide modulation of STAT3 expression” (priority 2000, published 2005)
